Nine compounds from PMC4669708 (Cell Death & Disease, 2015) can be followed below.

In assay [1] the test system is HT-29 cells. Kind of assay: TRAIL- or FasL-induced necroptosis with Smac mimetic and z-VAD. It counts as cell-based, human. Particulars: 0.5 μM ponatinib, 5 μM pazopanib. The protocol:
(§1) Cells were seeded in 12-, 24- or 96-well plates at proper cell density. For necroptosis or apoptosis assays, cells were incubated with the indicated compound combinations at concentrations stated for 14–24 h. Smac mimetic and z-VAD-FMK were added 30–60 min before treatment with TNF-α, FasL or TRAIL. Cell viability was determined using CellTiter Glo Luminescent Cell Viability Assay (Promega, Fitchburg, WI, USA) according to the manufacturer's instructions. Luminescence was recorded with a SpectraMax M5Multimode plate reader (Molecular Devices, Sunnyvale, CA, USA). For flow cytometry-based determination of viability, cells were harvested, collected by centrifugation, washed once and resuspended in staining buffer (1 × PBS, 10% FBS). Cells were incubated with 0.5 μg/ml PI for 10 min at room temperature (RT) in the dark. Flow cytometric analyses were performed on an LSR Fortessa (BD Biosciences) and analyzed with FlowJo software version 7.6.3 (Tree Star Inc, Ashland, OR, USA). Cell size was evaluated by forward scatter. PI-negative normal-sized cells were considered living and data were normalized to values of untreated controls. For detection of apoptosis, cells were resuspended in Annexin V Binding Buffer (BioLegend, San Diego, CA, USA) and stained with 0.5 μg/ml PI and Alexa Fluor 647 Annexin V (BioLegend) according to manufacturer's instructions.

The subject of a further assay is Jurkat E6.1 cells. Kind of assay: FasL-induced apoptosis, cell viability. The format is cell-based. Particulars: 100 ng/ml human FasL, 24 h; 0.5 μM ponatinib, 5 μM pazopanib. The protocol:
as §1

The subject of the next assay is 3T3-SA cells. Kind of assay: TNF-α/z-VAD (TZ)-induced necroptosis. Conditions: Supplementary Figures 3a, b. It counts as cell-based, murine. Here is the method: as §1
Assay [2] concerns FADD-deficient Jurkat cells. Kind of assay: TNF-α-induced necroptosis, cell viability (CellTiter Glo). It counts as cell-based, human. Particulars: for EC50: CellTiter Glo, read-out: EC50 for inhibiting necroptosis; for prevention of necroptotic cell death: dose range, Figure 2a, b. Here is the method:
as §1, with “controls.” for “controls. For detection of apoptosis, cells were resuspended in Annexin V Binding Buffer (BioLegend, San Diego, CA, USA) and stained with 0.5 μg/ml PI and Alexa Fluor 647 Annexin V (BioLegend) according to manufacturer's instructions.”
The compounds were transferred into drug plates by acoustic droplet ejection using an Echo 520 liquid handler (LABCYTE, Sunnyvale, CA, USA). Necroptosis was induced in FADD-deficient Jurkat cells by addition of 10 ng/ml TNF-α immediately before seeding onto drug plates at a density of 1x10^4 cells/well. After 16 h incubation, cell viability was determined using CellTiter Glo Luminescent Cell Viability Assay according to manufacturer's instructions. Data analysis was performed by calculating a percentage of control to normalize for variability across different plates. The signal for the negative control DMSO wells was set to 0%, whereas the wells containing the positive control Nec-1 were put to 100% for each plate individually.
(ATP-based viability assays read luminescence as a measure of living cells.)

A further assay concerns the target T1, recombinant RIPK1 (Homo sapiens, UniProt Q13546).
T1 construct: purchased Signalchem R07-10G
Kind of assay: Recombinant kinase assay. It counts as biochemical. Conditions: 50 μM ATP; Supplementary Figure 4b. The protocol:
(§2) Recombinant RIPK1 or RIPK3 protein was incubated with the substrate MBP in kinase assay buffer (40 mM Tris-HCl pH 7.5, 10 mM MgCl2 and 1 mM DTT) in presence of 50 μM ATP, 5 μCi [γ-32 P]ATP and the indicated inhibitors in a total volume of 20 μl. […] The terminated reactions were spotted onto a SAM2 Biotin Capture membrane (Promega) and further processed according to the manufacturer's instructions. […] Data were normalized to a DMSO-treated control sample. For autoradiography, the reactions were stopped by addition of 5 μl 4x Laemmli buffer and incubated for 5 min at 95 °C.

The subject of assay [3] is HT-29 cells. Kind of assay: TNF-α/Smac mimetic/z-VAD-FMK (TSZ)-induced necroptosis, cell viability. The format is cell-based, human. Particulars: for rescue of TSZ-induced necroptotic cell death: compounds 1 μM, 20 ng/ml TNF-α, 500 nM Smac mimetic, 20 μM z-VAD overnight. The protocol:
as §1, with “controls.” for “controls. For detection of apoptosis, cells were resuspended in Annexin V Binding Buffer (BioLegend, San Diego, CA, USA) and stained with 0.5 μg/ml PI and Alexa Fluor 647 Annexin V (BioLegend) according to manufacturer's instructions.”

The test system of the next assay is HT-29 MLKL S358D cells. Kind of assay: Cell death driven by doxycycline-induced MLKL S358D expression. It counts as cell-based, human. Particulars: 2 μg/ml doxycycline overnight; 10 μM NSA, 0.5 μM ponatinib. Here is the method: as §1
The target of the next assay is RIPK3 (Homo sapiens, UniProt Q9Y572). Kind of assay: Recombinant kinase assay. The format is biochemical. Also noted: purchased Signalchem R09-10G. Here is the method: as §2
RIPK3, sequence (Q9Y572 whole entry): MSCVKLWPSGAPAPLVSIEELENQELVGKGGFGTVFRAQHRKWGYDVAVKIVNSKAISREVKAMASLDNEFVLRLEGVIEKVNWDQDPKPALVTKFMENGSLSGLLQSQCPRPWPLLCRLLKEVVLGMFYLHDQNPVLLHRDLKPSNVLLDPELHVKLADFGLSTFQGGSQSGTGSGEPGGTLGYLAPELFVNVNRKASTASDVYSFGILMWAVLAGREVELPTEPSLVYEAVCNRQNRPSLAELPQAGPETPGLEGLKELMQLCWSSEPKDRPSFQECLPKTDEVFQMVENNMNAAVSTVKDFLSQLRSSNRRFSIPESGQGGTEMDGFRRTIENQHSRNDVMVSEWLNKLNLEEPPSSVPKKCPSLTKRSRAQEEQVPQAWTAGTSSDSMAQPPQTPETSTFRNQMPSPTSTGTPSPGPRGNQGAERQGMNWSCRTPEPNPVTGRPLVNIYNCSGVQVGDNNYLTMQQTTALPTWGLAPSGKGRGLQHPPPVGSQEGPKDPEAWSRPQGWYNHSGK

T1 sequence (Q13546 1-327 limits assumed): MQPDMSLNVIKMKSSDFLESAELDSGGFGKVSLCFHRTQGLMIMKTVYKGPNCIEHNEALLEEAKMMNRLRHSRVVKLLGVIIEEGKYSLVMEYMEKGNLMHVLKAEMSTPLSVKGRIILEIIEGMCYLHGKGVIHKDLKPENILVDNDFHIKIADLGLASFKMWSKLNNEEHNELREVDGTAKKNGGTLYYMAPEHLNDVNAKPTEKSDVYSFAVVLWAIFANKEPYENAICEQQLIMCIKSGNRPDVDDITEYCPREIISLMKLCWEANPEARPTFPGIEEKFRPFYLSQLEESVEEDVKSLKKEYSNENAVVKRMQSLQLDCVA

For orientation: EC50 means the concentration needed to bring the measured effect to its halfway point. Take “5-[[4-[(2,3-dimethyl-2H-indazol-6-yl)methylamino]-2-pyrimidinyl]amino]-2-methyl-b enzenesulfonamide [pazopanib]”: in the assay on HT-29 cells [1] (200 ng/ml TRAIL + 500 nM Smac mimetic + 20 μM z-VAD), the “block of TRAIL-induced cell death” value is given as “similarly blocked”. Besides, the “block of FasL-induced necroptotic cell death” value in the assay with HT-29 cells [1] (200 ng/ml human FasL + 500 nM Smac mimetic + 20 μM z-VAD) is reported as “similarly blocked”. Also, the “inhibition of apoptotic cell death triggered by FasL” value with Jurkat E6.1 cells is reported as “none of the drugs inhibited apoptotic cell death”. Further, the “block of necroptotic cell death” value with 3T3-SA cells was “capable of blocking necroptotic cell death with comparable potency”. The 50% effective concentration (EC50) amounted to 254 nM in assay [2] (10 ng/ml TNF-α overnight) and 873 nM in the assay with HT-29 cells [3] (TSZ treatment, read-out: EC50 (necroptosis block)). Further, the “rescue of cell viability in drug screen” value in assay [2] (0.5 and 1.5 μM, 10 ng/ml TNF-α overnight) is “robustly rescued cell viability at both concentrations”. Moreover, the “RIPK1 kinase activity (MBP phosphorylation)” value at recombinant RIPK1 is given as “inhibiting RIPK1 kinase activity”. In the assay with HT-29 cells [3], the “rescue of TSZ-induced necroptotic cell death” value is given as “rescued”. Besides, the “block of cell death driven by MLKL S358D expression” value in the assay on HT-29 MLKL S358D cells is “did not block MLKL S358D-driven necroptosis”.

For the compound `COc1nccnc1NS(=O)(=O)c1ccc(NC(=O)/C=C/c2ccc([N+](=O)[O-])s2)cc1` [NSA, necrosulfonamide], the “block of cell death driven by MLKL S358D expression” value with HT-29 MLKL S358D cells was “could be blocked”.

Regarding `CN1C(=O)NC(Cc2c[nH]c3c(Cl)cccc23)C1=O` (stereo not shown) [Nec-1s, 7-Cl-O-Nec-1], the concentration for a half-maximal effect (EC50) in assay [2] (10 ng/ml TNF-α overnight) was 238 nM. In addition, on RIPK3 (autoradiography, Supplementary Figure 4c), the RIPK3 autophosphorylation result is on record as “showed no effect”.

As for `COc1cc(O)c2c(c1)/C=C/C[C@H](O)[C@H](O)C(=O)/C=C\C[C@H](C)OC2=O` [TAK1 inhibitor], the protection to necroptosis result in assay [2] (Supplementary Figures 6b, c) was “not able to confer protection to necroptosis”.

Turning to `COc1cc(Nc2c(C#N)cnc3cc(OCCCN4CCN(C)CC4)c(OC)cc23)c(Cl)cc1Cl` [bosutinib], in assay [2] (10 ng/ml TNF-α overnight), the “prevention of necroptotic cell death” value was “none of the other drugs prevented necroptotic cell death”. The “rescue of TSZ-induced necroptotic cell death” value with HT-29 cells [3] is “neither of the other four BCR-ABL inhibitors nor vandetanib did”.

As to `Cc1nc(Nc2ncc(C(=O)Nc3c(C)cccc3Cl)s2)cc(N2CCN(CCO)CC2)n1` [dasatinib], the “prevention of necroptotic cell death” value in assay [2] (10 ng/ml TNF-α overnight) is “showed a modest effect but only at drug concentrations high enough to induce toxicity”. In addition, the “rescue of TSZ-induced necroptotic cell death” value with HT-29 cells [3] is given as “neither of the other four BCR-ABL inhibitors nor vandetanib did”. Further, the “RIPK3 kinase activity (MBP phosphorylation)” value on RIPK3 (50 μM ATP, Figure 4e inhibitors at 10 μM) is “interfered with RIPK3 activity”.

Turning to `Cc1ccc(NC(=O)c2ccc(CN3CCN(C)CC3)cc2)cc1Nc1nccc(-c2cccnc2)n1` [imatinib], the “prevention of necroptotic cell death” value in assay [2] (10 ng/ml TNF-α overnight) was “none of the other drugs prevented necroptotic cell death”. Besides, the “rescue of TSZ-induced necroptotic cell death” value with HT-29 cells [3] is on record as “neither of the other four BCR-ABL inhibitors nor vandetanib did”.

For the compound `Cc1cn(-c2cc(NC(=O)c3ccc(C)c(Nc4nccc(-c5cccnc5)n4)c3)cc(C(F)(F)F)c2)cn1` [nilotinib], in assay [2] (10 ng/ml TNF-α overnight), the “prevention of necroptotic cell death” value is reported as “none of the other drugs prevented necroptotic cell death”. In the assay with HT-29 cells [3], the “rescue of TSZ-induced necroptotic cell death” value is “neither of the other four BCR-ABL inhibitors nor vandetanib did”.

On to `COc1cc2c(Nc3ccc(Br)cc3F)ncnc2cc1OCC1CCN(C)CC1` [vandetanib], for which the “prevention of necroptotic cell death” value in assay [2] (10 ng/ml TNF-α overnight) was “did not confer protection”. In the assay on HT-29 cells [3], the “rescue of TSZ-induced necroptotic cell death” value is listed as “neither of the other four BCR-ABL inhibitors nor vandetanib did”.
